Experimental data: ChEMBL document CHEMBL1148590, “Design and synthesis of 3,4-dihydro-1H-[1]-benzothieno[2,3-c]pyran and 3,4-dihydro-1H-pyrano[3,4-b]benzofuran derivatives as non-nucleoside inhibitors of HCV NS5B RNA dependent RNA polymerase” (Bioorg Med Chem Lett, 2006)
Active and inactive are the calls of the source. The rule behind the calls is not given here.

Assays:
[1] = molecular target: RNA-directed RNA polymerase (Hepacivirus hominis, UniProt O39930); assay: Displacement of [alpha-32P]GTP from recombinant HCV NS5B RNA dependent RNA polymerase
[2] = molecular target: T1, DNA polymerase subunit gamma-1 (Homo sapiens) (UniProt P54098); assay: Inhibitory activity against human mitochondrial DNA polymerase gamma upto 50 uM
T1 sequence (whole entry): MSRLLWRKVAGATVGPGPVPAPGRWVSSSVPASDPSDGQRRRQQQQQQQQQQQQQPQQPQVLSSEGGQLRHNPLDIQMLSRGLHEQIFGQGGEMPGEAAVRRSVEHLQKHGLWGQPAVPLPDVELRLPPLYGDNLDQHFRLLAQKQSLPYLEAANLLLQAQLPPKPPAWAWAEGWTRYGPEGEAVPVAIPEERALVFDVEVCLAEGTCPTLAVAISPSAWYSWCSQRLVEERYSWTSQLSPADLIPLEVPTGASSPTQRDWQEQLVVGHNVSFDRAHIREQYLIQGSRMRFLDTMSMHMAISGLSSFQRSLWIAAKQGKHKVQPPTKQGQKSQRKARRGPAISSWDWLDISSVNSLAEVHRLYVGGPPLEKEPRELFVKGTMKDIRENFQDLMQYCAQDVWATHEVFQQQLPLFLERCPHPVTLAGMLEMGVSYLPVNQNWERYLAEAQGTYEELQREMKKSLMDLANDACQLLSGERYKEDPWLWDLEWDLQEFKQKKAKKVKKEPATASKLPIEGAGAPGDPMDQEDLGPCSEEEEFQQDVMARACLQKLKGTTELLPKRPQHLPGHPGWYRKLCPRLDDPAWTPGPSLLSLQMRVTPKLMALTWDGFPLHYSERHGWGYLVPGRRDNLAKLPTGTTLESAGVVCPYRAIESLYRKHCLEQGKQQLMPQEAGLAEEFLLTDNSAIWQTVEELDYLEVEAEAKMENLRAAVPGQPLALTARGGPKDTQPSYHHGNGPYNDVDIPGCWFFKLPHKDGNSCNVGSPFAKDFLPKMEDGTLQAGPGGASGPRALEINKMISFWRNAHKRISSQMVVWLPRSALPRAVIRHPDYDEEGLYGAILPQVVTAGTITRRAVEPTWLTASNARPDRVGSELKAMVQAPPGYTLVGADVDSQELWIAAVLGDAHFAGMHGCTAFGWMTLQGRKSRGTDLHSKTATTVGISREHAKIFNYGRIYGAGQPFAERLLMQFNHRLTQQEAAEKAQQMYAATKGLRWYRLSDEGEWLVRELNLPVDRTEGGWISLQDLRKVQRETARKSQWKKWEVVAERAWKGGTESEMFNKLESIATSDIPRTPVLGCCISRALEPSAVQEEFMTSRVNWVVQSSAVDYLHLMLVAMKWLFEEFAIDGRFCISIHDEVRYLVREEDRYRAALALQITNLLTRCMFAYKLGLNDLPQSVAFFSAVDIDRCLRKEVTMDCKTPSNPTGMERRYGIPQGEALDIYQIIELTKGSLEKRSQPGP

NS3 = NS3 (Hepatitis C virus, UniProt A3EZJ3); assay: Inhibition of HCV NS3 helicase; parameters: species or system Hepacivirus hominis
Huh-7 = assay: Cytotoxicity against Huh7 cells by MTS metabolic assay; type: functional, cell-based; conditions: Homo sapiens
Vero = assay: Cytotoxicity against vero cells by MTS metabolic assay; type: functional, cell-based; conditions: Chlorocebus sabaeus
[3] = molecular target: Human immunodeficiency virus type 1 reverse transcriptase (Human immunodeficiency virus 1, UniProt Q72547); assay: Inhibition of HIV reverse transcriptase

Chain of RNA-directed RNA polymerase (O39930 whole entry): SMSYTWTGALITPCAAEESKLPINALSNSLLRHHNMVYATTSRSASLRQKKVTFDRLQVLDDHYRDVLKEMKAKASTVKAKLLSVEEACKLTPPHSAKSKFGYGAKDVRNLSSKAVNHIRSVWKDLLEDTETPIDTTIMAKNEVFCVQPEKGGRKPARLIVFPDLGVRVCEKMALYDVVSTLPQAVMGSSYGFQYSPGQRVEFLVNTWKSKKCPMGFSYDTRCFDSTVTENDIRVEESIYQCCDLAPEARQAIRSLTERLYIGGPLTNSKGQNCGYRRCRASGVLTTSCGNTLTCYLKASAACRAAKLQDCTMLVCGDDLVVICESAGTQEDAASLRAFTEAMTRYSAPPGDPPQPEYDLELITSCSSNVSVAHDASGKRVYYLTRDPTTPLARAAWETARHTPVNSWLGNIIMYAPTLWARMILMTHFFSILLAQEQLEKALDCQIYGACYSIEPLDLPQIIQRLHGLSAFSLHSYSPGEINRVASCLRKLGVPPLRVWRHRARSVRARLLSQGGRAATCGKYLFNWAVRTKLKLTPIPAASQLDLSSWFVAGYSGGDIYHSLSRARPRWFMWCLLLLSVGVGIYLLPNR
Chain of NS3 (A3EZJ3 whole entry): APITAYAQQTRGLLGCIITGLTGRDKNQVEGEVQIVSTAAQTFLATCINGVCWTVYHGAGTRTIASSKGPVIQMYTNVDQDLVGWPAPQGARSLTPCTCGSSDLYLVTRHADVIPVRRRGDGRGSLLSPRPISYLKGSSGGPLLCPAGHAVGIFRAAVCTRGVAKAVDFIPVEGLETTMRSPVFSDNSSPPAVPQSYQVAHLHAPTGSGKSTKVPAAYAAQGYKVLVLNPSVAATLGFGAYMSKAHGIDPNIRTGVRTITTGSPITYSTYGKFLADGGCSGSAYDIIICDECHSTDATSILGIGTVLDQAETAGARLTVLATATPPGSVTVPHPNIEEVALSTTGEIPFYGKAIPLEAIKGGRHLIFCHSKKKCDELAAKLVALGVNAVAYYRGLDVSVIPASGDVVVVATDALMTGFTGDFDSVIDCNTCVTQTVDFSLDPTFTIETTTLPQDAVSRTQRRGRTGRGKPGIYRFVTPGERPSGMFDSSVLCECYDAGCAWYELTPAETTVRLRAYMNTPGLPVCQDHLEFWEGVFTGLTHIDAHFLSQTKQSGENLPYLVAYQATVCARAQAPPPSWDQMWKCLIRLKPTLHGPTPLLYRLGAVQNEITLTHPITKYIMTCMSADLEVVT

IC50 [1] [nM] | Structure (SMILES) | other results
140 | CCCC1(CC(=O)O)OCCc2c1sc1c(Cl)ccc(Cl)c21 (stereo not drawn) | –
16300 | CCC1(CC(=O)O)OCCc2c1oc1c(Cl)ccc(Cl)c21 (stereo not drawn) | –
170 | CCC[C@]1(CC(=O)O)OCCc2c1sc1c(C)ccc(C#N)c21 | –
190 | CCCC1(CC(=O)O)OCCc2c1sc1c(C)ccc(Br)c21 (stereo not drawn) | –
750 | CCCCC1(CC(=O)O)OCCc2c1sc1c(Cl)ccc(Cl)c21 (stereo not drawn) | –
5360 | CCC[C@@]1(CC(=O)O)OCCc2c1sc1c(C)cc(F)c(C#N)c21 | –
1490 | CCCC1(CC(=O)O)OCCc2c1oc1c(Cl)ccc(Cl)c21 (stereo not drawn) | –
130 | CCCC1(CC(=O)O)OCCc2c1sc1c(C)cc(F)c(C#N)c21 (stereo not drawn) | –
2850 | CCC[C@@]1(CC(=O)O)OCCc2c1sc1c(C)ccc(C#N)c21 | –
1900 | CCC1(CC(=O)O)OCCc2c1sc1c(Cl)ccc(Cl)c21 (stereo not drawn) | –
320 | CCCC1(CC(=O)O)OCCc2c1sc1c(C)ccc(C#N)c21 (stereo not drawn) | –
50 | CCC[C@]1(CC(=O)O)OCCc2c1sc1c(C)cc(F)c(C#N)c21 | Activity [2]: inactive; IC50 (NS3): > 75000 nM; IC50 (Huh-7): > 75000 nM; IC50 (Vero): > 75000 nM; IC50 [3]: > 100000 nM
17600 | CC1(CC(=O)O)OCCc2c1sc1c(Cl)ccc(Cl)c21 (stereo not drawn) | –
4460 | CCCCC1(CC(=O)O)OCCc2c1oc1c(Cl)ccc(Cl)c21 (stereo not drawn) | –

Structure (SMILES) | IC50 [1] [nM] | other results
CCCC1(CC(=O)O)OCCc2c1oc1ccccc21 (stereo not drawn) | > 20000 | –
CCCC1(CC(=O)O)OCCc2c1sc1c(C)cc(F)cc21 (stereo not drawn) | > 20000 | –
CCCC1(CC(=O)O)OCCc2c1sc1ccccc21 (stereo not drawn) | > 20000 | –
CC1(CC(=O)O)OCCc2c1oc1c(Cl)ccc(Cl)c21 (stereo not drawn) | > 20000 | –
